From patent US11427567B2, “Imidazolyl pyrimidinylamine compounds as CDK2 inhibitors” (Incyte Corporation, priority 2019, dated 2022)

Molecular target: CDK2/Cyclin E1 (Homo sapiens (Human), UniProt P24941)
Assay: CDK2/Cyclin E1 HTRF enzyme activity assay (Example A)
Assay type: biochemical
Conditions: 1 mM ATP
Experimental: Assays were conducted in white 384-well polystyrene plates in a final reaction volume of 8 μL. […] HTRF signals were read after 1 hour at room temperature on a PHERAstar FS plate reader (BMG Labtech). Data was analyzed with IDBS XLFit and GraphPad Prism 5.0 software using a three or four parameter dose response curve to determine IC50 for each compound.

| IC50 [nM] | SMILES |
| --- | --- |
| ≤ 50 | Cc1ccc(-n2cnc(-c3nc(NC4CCN(S(=O)(=O)c5cnn(C)c5C)CC4)ncc3C(F)(F)F)c2)c(C#N)n1 [Example 90, 3-(4-(2-((1-((1,5-Dimethyl-1H-pyrazol-4-yl)sulfonyl)piperidin-4-yl)amino)-5-(trifluoromethyl)pyrimidin-4-yl)-1H-imidazol-1-yl)-6-methylpicolinonitrile] |
| ≤ 50 | CN(C)CCOc1ccc(-n2cnc(-c3nc(NC4CCN(S(C)(=O)=O)CC4)ncc3C(F)(F)F)c2)c(C#N)n1 [Example 40, 6-(2-(Dimethylamino)ethoxy)-3-(4-(2-((1-(methylsulfonyl)piperidin-4-yl)amino)-5-(trifluoromethyl)pyrimidin-4-yl)-1H-imidazol-1-yl)picolinonitrile] |
| ≤ 50 | CS(=O)(=O)N1CCC(Nc2ncc(C(F)(F)F)c(-c3cn(CC(F)(F)F)cn3)n2)CC1 [Example 23, N-(1-(Methylsulfonyl)piperidin-4-yl)-4-(1-(2,2,2-trifluoroethyl)-1H-imidazol-4-yl)-5-(trifluoromethyl)pyrimidin-2-amine] |
| ≤ 50 | Cn1cnc(-c2nc(NC3CCN(S(C)(=O)=O)CC3)ncc2C(F)(F)F)c1C#N [Example 16, 1-Methyl-4-(2-((1-(methylsulfonyl)piperidin-4-yl)amino)-5-(trifluoromethyl)pyrimidin-4-yl)-1H-imidazole-5-carbonitrile] |
| ≤ 50 | CS(=O)(=O)N1CC[C@H](Nc2ncc(C(F)(F)F)c(-c3cn(-c4cccnc4C(F)F)cn3)n2)[C@H](F)C1 [Example 50, 4-(1-(2-(Difluoromethyl)pyridin-3-yl)-1H-imidazol-4-yl)-N-((3R,4S)-3-fluoro-1-(methylsulfonyl)piperidin-4-yl)-5-(trifluoromethyl)pyrimidin-2-amine] |
| ≤ 50 | CN1CCN(Cc2cc(F)c(-n3cnc(-c4nc(NC5CCN(S(C)(=O)=O)CC5)ncc4C(F)(F)F)c3)c(F)c2)CC1=O [Example 409, 4-(3,5-Difluoro-4-(4-(2-((1-(methylsulfonyl)piperidin-4-yl)amino)-5-(trifluoromethyl)pyrimidin-4-yl)-1H-imidazol-1-yl)benzyl)-1-methylpiperazin-2-one] |
| ≤ 50 | Cc1nc(-c2nc(NC3CCN(S(C)(=O)=O)CC3)ncc2C(F)(F)F)cn1-c1ccc(N2CCN(C(C)C)CC2)cc1F [Example 105, 4-(1-(2-Fluoro-4-(4-isopropyl-piperazin-1-yl)-phenyl)-2-methyl-1H-imidazol-4-yl)-N-(1-(methyl-sulfonyl)piperidin-4-yl)-5-(trifluoro-methyl)pyrimidin-2-amine] |
| ≤ 50 | CS(=O)(=O)N1CCC(Nc2ncc(C(F)(F)F)c(-c3cn(-c4ccc(N5CC[C@@H](O)C5)cc4Cl)cn3)n2)CC1 [Example 138, (R)-1-(3-Chloro-4-(4-(2-((1-(methylsulfonyl)piperidin-4-yl)amino)-5-(trifluoromethyl)pyrimidin-4-yl)-1H-imidazol-1-yl)phenyl)pyrrolidin-3-ol] |
| ≤ 50 | CCN(C)Cc1ccc(-n2cnc(-c3nc(NC4CCN(S(C)(=O)=O)CC4)ncc3C(F)(F)F)c2)c(C(F)(F)F)c1 [Example 257, 4-(1-(4-((Ethyl(methyl)amino)methyl)-2-(trifluoromethyl)phenyl)-1H-imidazol-4-yl)-N-(1-(methylsulfonyl)piperidin-4-yl)-5-(trifluoromethyl)pyrimidin-2-amine] |
| ≤ 50 | Cc1cc(CNCC(F)F)ccc1-n1cnc(-c2nc(NC3CCN(S(C)(=O)=O)CC3)ncc2C(F)(F)F)c1 [Example 450, 4-(1-(4-(((2,2-Difluoroethyl)amino)methyl)-2-methylphenyl)-1H-imidazol-4-yl)-N-(1-(methylsulfonyl)piperidin-4-yl)-5-(trifluoromethyl)pyrimidin-2-amine] |
| ≤ 50 | CN(C)Cc1ccc(-n2cnc(-c3nc(NC4CCN(S(C)(=O)=O)CC4)ncc3C(F)(F)F)c2)c(Cl)c1F [Example 253, 4-(1-(2-Chloro-4-((dimethylamino)methyl)-3-fluorophenyl)-1H-imidazol-4-yl)-N-(1-(methylsulfonyl)piperidin-4-yl)-5-(trifluoromethyl)pyrimidin-2-amine] |
| ≤ 50 | C[C@@H]1CN(c2ccc(-n3cnc(-c4nc(NC5CCN(S(C)(=O)=O)CC5)ncc4C(F)(F)F)c3)c(Cl)c2)CCN1 [Example 141, (R)-4-(1-(2-Chloro-4-(3-methyl-piperazin-1-yl)-phenyl)-1H-imidazol-4-yl)-N-(1-(methyl-sulfonyl)piperidin-4-yl)-5-(trifluoro-methyl)pyrimidin-2-amine] |
| ≤ 50 | CC(C)(O)Cn1cnc(-c2nc(N[C@@H]3CCN(S(=O)(=O)C4CC4)C[C@H]3F)ncc2C(F)(F)F)c1 [Example 333, 1-(4-(2-(((3R,4R)-1-(Cyclopropylsulfonyl)-3-fluoropiperidin-4-yl)amino)-5-4-yl)-1H-imidazol-1-yl)-2-methylpropan-2-ol] |
| ≤ 50 | Cc1ccc(-n2cnc(-c3nc(N[C@H]4CCN(S(=O)(=O)c5ccn(C)n5)C[C@H]4C)ncc3C(F)(F)F)c2)c(C#N)n1 [Example 154, 6-Methyl-3-(4-(2-(((3R,4S)-3-methyl-1-((1-methyl-1H-pyrazol-3-yl)-sulfonyl)piperidin-4-yl)amino)-5-(trifluoromethyl)-pyrimidin-4-yl)-1H-imidazol-1-yl)picolinonitrile] |
| ≤ 50 | CN1CCN(Cc2ccc(-n3cnc(-c4nc(NC5CCN(S(C)(=O)=O)CC5)ncc4C(F)(F)F)c3)c(Cl)c2)CC1=O [Example 211, 4-(3-Chloro-4-(4-(2-((1-(methylsulfonyl)-piperidin-4-yl)amino)-5-(trifluoromethyl)-pyrimidin-4-yl)-1H-imidazol-1-yl)benzyl)-1-methylpiperazin-2-one] |
| ≤ 50 | Cc1nc(-c2nc(NC3CCN(S(C)(=O)=O)CC3)ncc2C(F)(F)F)cn1-c1ccc(N[C@@H]2CCCN(C)C2)cc1F [Example 117] |
| ≤ 50 | Cc1nc(CN2CCC2)ccc1-n1cnc(-c2nc(NC3CCN(S(C)(=O)=O)CC3)ncc2C(F)(F)F)c1 [Example 252, 4-(1-(6-(Azetidin-1-ylmethyl)-2-methylpyridin-3-yl)-1H-imidazol-4-yl)-N-(1-(methylsulfonyl)piperidin-4-yl)-5-(trifluoromethyl)pyrimidin-2-amine] |
| ≤ 50 | CS(=O)(=O)N1CCC(Nc2ncc(C(F)(F)F)c(-c3cn(-c4cccnc4C(F)(F)F)cn3)n2)CC1 [Example 32, N-(1-(Methylsulfonyl)piperidin-4-yl)-5-(trifluoromethyl)-4-(1-(2-(trifluoromethyl)pyridin-3-yl)-1H-imidazol-4-yl)pyrimidin-2-amine] |
| ≤ 50 | CC(c1ccc(-n2cnc(-c3nc(NC4CCN(S(C)(=O)=O)CC4)ncc3C(F)(F)F)c2)c(Cl)c1)N1CCC1 (stereo not shown) [Example 274, 4-(1-(4-(1-(Azetidin-1-yl)ethyl)-2-chlorophenyl)-1H-imidazol-4-yl)-N-(1-(methylsulfonyl)piperidin-4-yl)-5-(trifluoromethyl)pyrimidin-2-amine] |
| ≤ 50 | CS(=O)(=O)N1CCC(Nc2ncc(C(F)(F)F)c(-c3cn(-c4c(F)cc(CN5CCC5)cc4Cl)cn3)n2)CC1 [Example 395, 4-(1-(4-(Azetidin-1-ylmethyl)-2-chloro-6-fluorophenyl)-1H-imidazol-4-yl)-N-(1-(methyslulfonyl)piperidin-4-yl)-5-(trifluoromethyl)pyrimidin-2-amine] |
| ≤ 50 | Cc1nc(-c2nc(NC3CCN(S(C)(=O)=O)CC3)ncc2C(F)(F)F)cn1-c1ccc(CN(C)C)cc1F [Example 279, 4-(1-(4-((Dimethylamino)methyl)-2-fluorophenyl)-2-methyl-1H-imidazol-4-yl)-N-(1-(methylsulfonyl)piperidin-4-yl)-5-(trifluoromethyl)pyrimidin-2-amine] |
| ≤ 50 | Cc1nc(CN(C)C)ccc1-n1cnc(-c2nc(NC3CCN(S(C)(=O)=O)CC3)ncc2C(F)(F)F)c1 [Example 263, 4-(1-(6-((Dimethylamino)methyl)-2-methylpyridin-3-yl)-1H-imidazol-4-yl)-N-(1-(methylsulfonyl)piperidin-4-yl)-5-(trifluoromethyl)pyrimidin-2-amine] |
| ≤ 50 | Cn1c(Cl)nc(-c2nc(NC3CCN(S(C)(=O)=O)CC3)ncc2C(F)(F)F)c1Cl [Example 12, 4-(2,5-Dichloro-1-methyl-1H-imidazol-4-yl)-N-(1-(methylsulfonyl)piperidin-4-yl)-5-(trifluoromethyl)pyrimidin-2-amine] |
| ≤ 50 | C[C@@H]1CN(S(C)(=O)=O)CC[C@@H]1Nc1ncc(C(F)(F)F)c(-c2cn(-c3ccc(CN4CCC4)cc3Cl)cn2)n1 [Example 219, 4-(1-(4-(Azetidin-1-ylmethyl)-2-chloro-phenyl)-1H-imidazol-4-yl)-N-((3R,4S)-3-methyl-1-(methyl-sulfonyl)piperidin-4-yl)-5-(trifluoro-methyl)pyrimidin-2-amine] |
| ≤ 50 | C[C@@H]1CN(S(C)(=O)=O)CC[C@@H]1Nc1ncc(C(F)(F)F)c(-c2cn(-c3ccc4nccnc4c3Br)cn2)n1 [Example 156, 4-(1-(5-Bromoquinoxalin-6-yl)-1H-imidazol-4-yl)-N-((3R,4S)-3-methyl-1-(methylsulfonyl)piperidin-4-yl)-5-(trifluoromethyl)pyrimidin-2-amine] |
| ≤ 50 | CCNCc1ccc(-n2cnc(-c3nc(N[C@@H]4CCN(S(C)(=O)=O)C[C@H]4F)ncc3C(F)(F)F)c2)c(Cl)c1 [Example 401] |
| ≤ 50 | Cc1ccc(-n2cnc(-c3nc(N[C@H]4CCN(S(=O)(=O)c5cn(C)cn5)C[C@H]4C)ncc3C(F)(F)F)c2)c(C#N)n1 [Example 152, 6-Methyl-3-(4-(2-(((3R,4S)-3-methyl-1-((1-methyl-1H-imidazol-4-yl)sulfonyl)piperidin-4-yl)amino)-5-(trifluoromethyl)pyrimidin-4-yl)-1H-imidazol-1-yl)picolinonitrile] |
| ≤ 50 | CN1CCN(Cc2cccc(-n3cnc(-c4nc(NC5CCN(S(C)(=O)=O)CC5)ncc4C(F)(F)F)c3)c2Cl)CC1 [Example 78, 4-(1-(2-Chloro-3-((4-methylpiperazin-1-yl)methyl)phenyl)-1H-imidazol-4-yl)-N-(1-(methylsulfonyl)piperidin-4-yl)-5-(trifluoromethyl)pyrimidin-2-amine] |
